The structures appear in SMILES notation.

We go through 17 molecules from patent US10202389B2, “Pyrazolopyrimidinyl inhibitors of ubiquitin-activating enzyme” (Millennium Pharmaceuticals, Inc., priority 2012, dated 2019).

This assay has as its target recombinant human UAE (Homo sapiens (Human), UniProt P22314). Nature of the assay: Ubiquitin Activating Enzyme (UAE) HTRF Assay. The following applies: read-out: % inhibition @0.111 μM.

Sequence of recombinant human UAE (P22314 whole entry): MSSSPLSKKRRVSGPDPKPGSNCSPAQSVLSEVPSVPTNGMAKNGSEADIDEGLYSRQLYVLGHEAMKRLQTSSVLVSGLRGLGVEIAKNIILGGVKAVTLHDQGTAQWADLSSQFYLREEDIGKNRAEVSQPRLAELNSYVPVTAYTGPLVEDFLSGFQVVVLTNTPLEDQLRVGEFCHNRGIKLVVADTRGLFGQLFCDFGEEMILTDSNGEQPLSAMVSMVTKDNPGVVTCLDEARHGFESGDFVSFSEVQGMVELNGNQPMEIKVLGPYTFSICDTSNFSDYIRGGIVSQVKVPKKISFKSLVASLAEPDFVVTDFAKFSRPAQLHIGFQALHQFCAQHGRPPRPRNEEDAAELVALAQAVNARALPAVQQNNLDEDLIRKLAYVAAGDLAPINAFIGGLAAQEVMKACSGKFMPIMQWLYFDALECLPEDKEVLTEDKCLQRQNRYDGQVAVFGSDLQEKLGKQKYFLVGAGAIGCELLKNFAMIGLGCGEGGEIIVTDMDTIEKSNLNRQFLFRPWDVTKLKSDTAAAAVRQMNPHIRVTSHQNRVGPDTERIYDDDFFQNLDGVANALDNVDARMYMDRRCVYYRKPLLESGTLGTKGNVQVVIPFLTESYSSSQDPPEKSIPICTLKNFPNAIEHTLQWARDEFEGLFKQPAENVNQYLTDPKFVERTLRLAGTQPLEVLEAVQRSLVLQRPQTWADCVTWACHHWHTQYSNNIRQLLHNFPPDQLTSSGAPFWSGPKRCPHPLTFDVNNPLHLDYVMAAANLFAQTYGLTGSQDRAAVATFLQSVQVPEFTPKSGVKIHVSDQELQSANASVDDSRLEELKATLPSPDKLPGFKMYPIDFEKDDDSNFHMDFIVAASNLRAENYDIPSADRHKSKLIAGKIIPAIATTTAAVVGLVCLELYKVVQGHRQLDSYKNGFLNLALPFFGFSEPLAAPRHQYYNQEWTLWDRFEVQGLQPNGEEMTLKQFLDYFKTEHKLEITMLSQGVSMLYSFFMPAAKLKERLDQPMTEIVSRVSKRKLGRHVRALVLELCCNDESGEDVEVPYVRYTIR
Protocol: After incubation for 120 minutes, quantification of the FRET is performed on the Pherostar (BMG).
For compounds whose values are marked with an asterisk (*), mouse UAE was used. For all other compounds, human UAE was used.

Consider `NS(=O)(=O)OC[C@H]1C[C@@H](Nc2ccnc3cc(-c4cccc(C(F)(F)F)n4)nn23)[C@H](O)[C@@H]1O` (relative stereo) [Compound I-064, (rac)-((1R,2R,3S,4R)-2,3-dihydroxy-4-(2-(6-(trifluoromethyl)pyridin-2-yl)pyrazolo[1,5-a]pyrimidin-7-ylamino)cyclopentyl)methyl rel-sulfamate], for which the inhibition (as a rule, how much of the control response was suppressed) at 0.111 µM was 96%.

Consider `COc1ccc(C(F)(F)F)cc1-c1cc2nccc(N[C@@H]3C[C@H](COS(N)(=O)=O)[C@@H](O)[C@H]3O)n2n1` (relative stereo) [Compound I-065, (rac)-((1R,2R,3S,4R)-2,3-Dihydroxy-4-((2-(2-methoxy-5-(trifluoromethyl)phenyl)-pyrazolo[1,5-a]pyrimidin-7-yl)amino)cyclopentyl)methyl rel-sulfamate], for which the inhibition at 0.111 µM stood at 100%. On to `COc1ccc(OC(F)(F)F)cc1-c1cc2nccc(N[C@@H]3C[C@H](COS(N)(=O)=O)[C@@H](O)[C@H]3O)n2n1` (relative stereo) [Compound I-066, (rac)-((1R,2R,3S,4R)-2,3-Dihydroxy-4-((2-(2-methoxy-5-(trifluoromethoxy)-phenyl)pyrazolo[1,5-a]pyrimidin-7-yl)amino)cyclopentyl)methyl rel-sulfamate], for which the inhibition at 0.111 µM is 100%.

Consider `NS(=O)(=O)OC[C@H]1C[C@@H](Nc2ccnc3cc(-c4cnc(-c5ccccc5)o4)nn23)[C@H](O)[C@@H]1O` (relative stereo) [Compound I-067, (rac)-[(1R,2R,3S,4R)-2,3-dihydroxy-4-{[2-(2-phenyl-1,3-oxazol-5-yl)pyrazolo[1,5-a]pyrimidin-7-yl]amino}cyclopentyl]methyl rel-sulfamate], for which the inhibition at 0.111 µM worked out at 100%.

`NS(=O)(=O)OC[C@H]1C[C@@H](Nc2ccnc3cc(-c4ccccc4Oc4ccccc4)nn23)[C@H](O)[C@@H]1O` (relative stereo) [Compound I-068, (rac)-((1R,2R,3S,4R)-2,3-dihydroxy-4-(2-(2-phenoxyphenyl)pyrazolo[1,5-a]pyrimidin-7-ylamino)cyclopentyl)methyl rel-sulfamate]: the inhibition at 0.111 µM was determined as 95%. With `NS(=O)(=O)OC[C@H]1C[C@@H](Nc2ccnc3cc(-c4cccc(Cc5ccccc5)c4)nn23)[C@H](O)[C@@H]1O` (relative stereo) [Compound I-069, (rac)-((1R,2R,3S,4R)-4-(2-(3-benzylphenyl)pyrazolo[1,5-a]pyrimidin-7-ylamino)-2,3-dihydroxycyclopentyl)methyl rel-sulfamate], the inhibition at 0.111 µM was 84%.

In the case of `COc1cc(F)ccc1-c1cc2nccc(N[C@@H]3C[C@H](COS(N)(=O)=O)[C@@H](O)[C@H]3O)n2n1` (relative stereo) [Compound I-070, (rac)-((1R,2R,3S,4R)-4-(2-(4-fluoro-2-methoxyphenyl)pyrazolo[1,5-a]pyrimidin-7-ylamino)-2,3-dihydroxycyclopentyl)methyl rel-sulfamate], the inhibition at 0.111 µM came to 99%.

With `NS(=O)(=O)OC[C@H]1C[C@@H](Nc2ccnc3cc(-c4csc5ccc(Cl)cc45)nn23)[C@H](O)[C@@H]1O` (relative stereo) [Compound I-071, (rac)-((1R,2R,3S,4R)-4-(2-(5-chlorobenzo[b]thiophen-3-yl)pyrazolo[1,5-a]pyrimidin-7-ylamino)-2,3-dihydroxycyclopentyl)methyl rel-sulfamate], the inhibition at 0.111 µM amounted to 100%. The value for `COc1ccccc1-c1cc2nccc(N[C@@H]3C[C@H](COS(N)(=O)=O)[C@@H](O)[C@H]3O)n2n1` (relative stereo) [Compound I-072, (rac)-((1R,2R,3S,4R)-2,3-dihydroxy-4-(2-(2-methoxyphenyl)pyrazolo[1,5-a]pyrimidin-7-ylamino)cyclopentyl)methyl rel-sulfamate] was 100%; that for `NS(=O)(=O)OC[C@H]1C[C@@H](Nc2ccnc3cc(-c4cccc(C(=O)c5ccccc5)c4)nn23)[C@H](O)[C@@H]1O` (relative stereo) [Compound I-073, (rac)-((1R,2R,3S,4R)-4-(2-(3-benzoylphenyl)pyrazolo[1,5-a]pyrimidin-7-ylamino)-2,3-dihydroxycyclopentyl)methyl rel-sulfamate] was 91%. The value for `NS(=O)(=O)OC[C@H]1C[C@@H](Nc2ccnc3cc(-c4ccc5[nH]ccc5c4)nn23)[C@H](O)[C@@H]1O` (relative stereo) [Compound I-074, (rac)-[(1R,2R,3S,4R)-2,3-dihydroxy-4-{[2-(1H-indol-5-yl)pyrazolo[1,5-a]pyrimidin-7-yl]amino}cyclopentyl]methyl rel-sulfamate] was 98%; that for `NS(=O)(=O)OC[C@H]1C[C@@H](Nc2ccnc3cc(-c4cccc5[nH]ccc45)nn23)[C@H](O)[C@@H]1O` (relative stereo) [Compound I-075, (rac)-((1R,2R,3S,4R)-4-(2-(1H-indol-4-yl)pyrazolo[1,5-a]pyrimidin-7-ylamino)-2,3-dihydroxycyclopentyl)methyl rel-sulfamate] was 100%; that for `NS(=O)(=O)OC[C@H]1C[C@@H](Nc2ccnc3cc(-c4cccc(SCC5CC5)c4)nn23)[C@H](O)[C@@H]1O` (relative stereo) [Compound I-076, (rac)-((1R,2R,3S,4R)-4-(2-(3-(cyclopropylmethylthio)phenyl)pyrazolo[1,5-a]pyrimidin-7-ylamino)-2,3-dihydroxycyclopentyl)methyl rel-sulfamate] was 100%. Under `NS(=O)(=O)OC[C@H]1C[C@@H](Nc2ccnc3cc(-c4cccc(N5CCCCC5)c4)nn23)[C@H](O)[C@@H]1O` (relative stereo) [Compound I-077, (rac)-((1R,2R,3S,4R)-2,3-dihydroxy-4-(2-(3-(piperidin-1-yl)phenyl)pyrazolo[1,5-a]pyrimidin-7-ylamino)cyclopentyl)methyl rel-sulfamate] stands 100%; under `NS(=O)(=O)OC[C@H]1C[C@@H](Nc2ccnc3cc(-c4cccc(N5CCOCC5)c4)nn23)[C@H](O)[C@@H]1O` (relative stereo) [Compound I-078, (rac)-((1R,2R,3S,4R)-2,3-dihydroxy-4-(2-(3-morpholinophenyl)pyrazolo[1,5-a]pyrimidin-7-ylamino)cyclopentyl)methyl rel-sulfamate], 100%. As for `NS(=O)(=O)OC[C@H]1C[C@@H](Nc2ccnc3cc(-c4ccccc4SC(F)(F)F)nn23)[C@H](O)[C@@H]1O` (relative stereo) [Compound I-079, (rac)-((1R,2R,3S,4R)-2,3-dihydroxy-4-(2-(2-(trifluoromethylthio)phenyl)pyrazolo[1,5-a]pyrimidin-7-ylamino)cyclopentyl)methyl rel-sulfamate], the inhibition at 0.111 µM was determined as 75%. Regarding `NS(=O)(=O)OC[C@H]1C[C@@H](Nc2ccnc3cc(-c4ccc(SC(F)(F)F)cc4)nn23)[C@H](O)[C@@H]1O` (relative stereo) [Compound I-080, (rac)-((1R,2R,3S,4R)-2,3-dihydroxy-4-(2-(4-(trifluoromethylthio)phenyl)pyrazolo[1,5-a]pyrimidin-7-ylamino)cyclopentyl)methyl rel-sulfamate], the inhibition at 0.111 µM turned out to be 80%.
